Laboratory results reported in patent publication US10736883B2, “Triazole furan compounds as agonists of the APJ receptor” (AMGEN INC., priority 2016, dated 2020).

What follows are compounds tested against APJ receptor (Homo sapiens (Human), UniProt P35414) (assay: [35S]GTPγS binding assay on membranes from CHO cells stably expressing human APJ receptor). Details: membranes of CHO cells stably expressing human APJ receptor, means of several independent experiments, read-out: Activity hAPJ SPA EC50 IP.
Type: biochemical
How it was run: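 Membranes from CHO cells stably expressing human APJ were incubated with 0.2 nM [35S]GTPγS and ligands for 90 min at RT in 20 mM HEPES pH 7.5, 5 mM MgCl2, 200 mM NaCl, 3 μM GDP, 0.1% BSA with WGA PS beads. Nonspecific binding was set with 100 μM GTPγS. EC50 came from non-linear regression.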

Chain of APJ receptor (P35414 whole entry): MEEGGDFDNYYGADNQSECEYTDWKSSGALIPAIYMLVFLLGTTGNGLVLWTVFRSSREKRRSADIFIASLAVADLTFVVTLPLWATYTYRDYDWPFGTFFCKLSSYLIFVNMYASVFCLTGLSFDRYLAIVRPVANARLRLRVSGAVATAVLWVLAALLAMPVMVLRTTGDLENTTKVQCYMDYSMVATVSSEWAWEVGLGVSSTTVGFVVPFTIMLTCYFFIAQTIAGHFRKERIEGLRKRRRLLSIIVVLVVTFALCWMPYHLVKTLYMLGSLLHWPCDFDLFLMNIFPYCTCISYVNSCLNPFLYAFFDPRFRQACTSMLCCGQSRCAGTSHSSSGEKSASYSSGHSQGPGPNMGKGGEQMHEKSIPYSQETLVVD

Row | EC50 [nM] | Structure (SMILES)
1 | 5 | COc1cccc(OC)c1-n1c(NS(=O)(=O)[C@H](C)[C@H](O)c2ccnc3c2OCCC3)nnc1-c1ccc(C)o1 (racemic) [Example 291.0, (1R,2R)-1-(3,4-Dihydro-2H-pyrano[3,2-b]pyridin-8-yl)-N-(4-(2,6-dimethoxyphenyl)-5-(5-methyl-2-furanyl)-4H-1,2,4-triazol-3-yl)-1-hydroxy-2-propanesulfonamide and (1S,2S)-1-(3,4-dihydro-2H-pyrano[3,2-b]pyridin-8-yl)-N-(4-(2,6-dimethoxyphenyl)-5-(5-methyl-2-furanyl)-4H-1,2,4-triazol-3-yl)-1-hydroxy-2-propanesulfonamide]
2 | 3.6 | COc1cccc(OC)c1-n1c(NS(=O)(=O)[C@H]2COC[C@@H]2c2ncc(F)cn2)nnc1-c1ccco1 (racemic) [Example 180.0, (3R,4S)—N-(4-(2,6-Dimethoxyphenyl)-5-(2-furanyl)-4H-1,2,4-triazol-3-yl)-4-(5-fluoro-2-pyrimidinyl)tetrahydro-3-furansulfonamide and (3S,4R)—N-(4-(2,6-dimethoxyphenyl)-5-(2-furanyl)-4H-1,2,4-triazol-3-yl)-4-(5-fluoro-2-pyrimidinyl)tetrahydro-3-furansulfonamide]
3 | 26 | Cc1ccc(-c2nnc(NS(=O)(=O)[C@@H](C)[C@H](C)c3ncc(F)cn3)n2C2CCOCC2)o1 [Example 182.0, (2S,3R)-3-(5-Fluoro-2-pyrimidinyl)-N-(5-(5-methyl-2-furanyl)-4-(tetrahydro-2H-pyran-4-yl)-4H-1,2,4-triazol-3-yl)-2-butanesulfonamide]
4 | 0.5 | COc1cccc(OC)c1-n1c(NS(=O)(=O)CCN2C(=O)N(C)CC[C@H]2C)nnc1-c1ccc(C)o1 (mixture of isomers) [Example 160.0, N-(4-(2,6-Dimethoxyphenyl)-5-(5-methyl-2-furanyl)-4H-1,2,4-triazol-3-yl)-2-((6R)-3,6-dimethyl-2-oxotetrahydro-1 (2H)-pyrimidinyl)ethanesulfonamide and N-(4-(2,6-dimethoxyphenyl)-5-(5-methyl-2-furanyl)-4H-1,2,4-triazol-3-yl)-2-((6S)-3,6-dimethyl-2-oxotetrahydro-1(2H)-pyrimidinyl)ethanesulfonamide]
5 | 4.9 | COc1cccc(OC)c1-n1c(NS(=O)(=O)[C@@H](C)[C@H](O)c2cn3ccccc3n2)nnc1-c1ccc(C)o1 (single isomer, unassigned) [Example 289.0, (1R,2S)—N-(4-(2,6-Dimethoxyphenyl)-5-(5-methyl-2-furanyl)-4H-1,2,4-triazol-3-yl)-1-hydroxy-1-imidazo[1,2-a]pyridin-2-yl-2-propanesulfonamide or (1S,2R)—N-(4-(2,6-dimethoxyphenyl)-5-(5-methyl-2-furanyl)-4H-1,2,4-triazol-3-yl)-1-hydroxy-1-imidazo[1,2-a]pyridin-2-yl-2-propanesulfonamide]
6 | 0.19 | COc1cccc(OC)c1-n1c(NS(=O)(=O)[C@@H](C)Cc2ncc(Cl)cc2NC(C)=O)nnc1-c1ccco1 (racemic) [Example 13.0, N-(5-chloro-2-((2S)-2-((4-(2,6-dimethoxyphenyl)-5-(2-furanyl)-4H-1,2,4-triazol-3-yl)sulfamoyl)propyl)-3-pyridinyl)acetamide and N-(5-chloro-2-((2R)-2-((4-(2,6-dimethoxyphenyl)-5-(2-furanyl)-4H-1,2,4-triazol-3-yl)sulfamoyl)propyl)-3-pyridinyl)acetamide]
7 | 0.084 | CCO[C@H](c1ncc(C)cn1)[C@H](C)S(=O)(=O)Nc1nnc(-c2ccc(C)o2)n1-c1c(OC)cccc1OC (single isomer, unassigned) [Example 118.0]
8 | 4.1 | COc1cccc(OC)c1-n1c(NS(=O)(=O)[C@H](C)[C@@H](OC)c2cn3ccccc3n2)nnc1-c1ccc(C)o1 (single isomer, unassigned) [Example 287.0, (1R,2S)—N-(4-(2,6-Dimethoxyphenyl)-5-(5-methyl-2-furanyl)-4H-1,2,4-triazol-3-yl)-1-imidazo[1,2-a]pyridin-2-yl-1-methoxy-2-propanesulfonamide or (1S,2R)—N-(4-(2,6-dimethoxyphenyl)-5-(5-methyl-2-furanyl)-4H-1,2,4-triazol-3-yl)-1-imidazo[1,2-a]pyridin-2-yl-1-methoxy-2-propanesulfonamide]
9 | 11 | COc1cccc(OC)c1-n1c(NS(=O)(=O)[C@H](C)[C@H](O)c2cscn2)nnc1-c1ccc(C)o1 (single isomer, unassigned) [Example 298.0, (1R,2R)—N-(4-(2,6-Dimethoxyphenyl)-5-(5-methyl-2-furanyl)-4H-1,2,4-triazol-3-yl)-1-hydroxy-1-(1,3-thiazol-4-yl)-2-propanesulfonamide or (1S,2S)—N-(4-(2,6-dimethoxyphenyl)-5-(5-methyl-2-furanyl)-4H-1,2,4-triazol-3-yl)-1-hydroxy-1-(1,3-thiazol-4-yl)-2-propanesulfonamide]
10 | 18 | COc1cccc(OC)c1-n1c(NS(=O)(=O)[C@H](C)[C@H](O)c2oc(C)nc2C)nnc1-c1ccc(C)o1 (racemic) [Example 82.0]
11 | 0.58 | COc1cccc(OC)c1-n1c(NS(=O)(=O)C[C@@](C)(F)c2ncc(F)cn2)nnc1-c1ccc(C)o1 (single isomer, unassigned) [Example 237.0, (2S)—N-(4-(2,6-Dimethoxyphenyl)-5-(5-methyl-2-furanyl)-4H-1,2,4-triazol-3-yl)-2-fluoro-2-(5-fluoro-2-pyrimidinyl)-1-propanesulfonamide or (2R)—N-(4-(2,6-dimethoxyphenyl)-5-(5-methyl-2-furanyl)-4H-1,2,4-triazol-3-yl)-2-fluoro-2-(5-fluoro-2-pyrimidinyl)-1-propanesulfonamide]
12 | 0.54 | COCC[C@@H]([C@H](C)c1ncc(F)cn1)S(=O)(=O)Nc1nnc(-c2ccc(C)o2)n1-c1c(OC)cccc1OC (racemic) [Example 74.0]
13 | 0.85 | COc1cccc(OC)c1-n1c(NS(=O)(=O)[C@@H](C)[C@H](O)c2coc(C)n2)nnc1-c1ccc(C)o1 (single isomer, unassigned) [Example 275.0, (1R,2S)—N-(4-(2,6-Dimethoxyphenyl)-5-(5-methyl-2-furanyl)-4H-1,2,4-triazol-3-yl)-1-hydroxy-1-(2-methyl-1,3-oxazol-4-yl)-2-propanesulfonamide or (1S,2R)—N-(4-(2,6-dimethoxyphenyl)-5-(5-methyl-2-furanyl)-4H-1,2,4-triazol-3-yl)-1-hydroxy-1-(2-methyl-1,3-oxazol-4-yl)-2-propanesulfonamide]
14 | 0.77 | COc1cccc(OC)c1-n1c(NS(=O)(=O)[C@@H](CCO)[C@H](C)c2ncc(C)cn2)nnc1-c1ccc(C)o1 (racemic) [Example 77.0]

Row | Structure (SMILES) | EC50 [nM]
15 | COCC(COC)n1c(NS(=O)(=O)[C@@H](C)[C@H](OC)c2ncc(Cl)cn2)nnc1-c1ccc(C)o1 [Example 387.0, (1R,2S)-1-(5-chloro-2-pyrimidinyl)-N-(4-(1,3-dimethoxy-2-propanyl)-5-(5-methyl-2-furanyl)-4H-1,2,4-triazol-3-yl)-1-methoxy-2-propanesulfonamide] | 2.1
16 | COc1cccc(OC)c1-n1c(NS(=O)(=O)[C@@H]2CCC[C@H]2c2ncc(F)cn2)nnc1-c1ccco1 (single isomer, unassigned) [Example 104.0, (1R,2S)—N-(4-(2,6-Dimethoxyphenyl)-5-(2-furanyl)-4H-1,2,4-triazol-3-yl)-2-(5-fluoro-2-pyrimidinyl)cyclopentanesulfonamide or (1S,2R)—N-(4-(2,6-dimethoxyphenyl)-5-(2-furanyl)-4H-1,2,4-triazol-3-yl)-2-(5-fluoro-2-pyrimidinyl)cyclopentanesulfonamide] | 22
17 | COc1cccc(OC)c1-n1c(NS(=O)(=O)[C@H](C)[C@@H](O)c2ncc(F)cn2)nnc1-c1ccc(C)o1 (racemic) [Example 96.0, (1R,2S)—N-(4-(2,6-Dimethoxyphenyl)-5-(5-methyl-2-furanyl)-4H-1,2,4-triazol-3-yl)-1-(5-fluoro-2-pyrimidinyl)-1-hydroxy-2-propanesulfonamide and (1S,2R)—N-(4-(2,6-dimethoxyphenyl)-5-(5-methyl-2-furanyl)-4H-1,2,4-triazol-3-yl)-1-(5-fluoro-2-pyrimidinyl)-1-hydroxy-2-propanesulfonamide] | 0.34
18 | COc1cccc(OC)c1-n1c(NS(=O)(=O)CCN2Cc3ccccc3C2=O)nnc1-c1ccco1 [Example 2.0, N-(4-(2,6-Dimethoxyphenyl)-5-(2-furanyl)-4H-1,2,4-triazol-3-yl)-2-(1-oxo-1,3-dihydro-2H-isoindol-2-yl)ethanesulfonamide] | 13000
19 | COc1cccc(OC)c1-n1c(NS(=O)(=O)[C@@H]2COCC[C@@H]2O)nnc1-c1ccc(C)o1 (single isomer, unassigned) [Example 402.0] | 65
20 | CC[C@H](Cc1ncc(F)cn1)S(=O)(=O)Nc1nnc(-c2ccc(C)o2)n1-c1c(OC)cccc1OC [Example 128.0, (R)-N-(4-(2,6-dimethoxyphenyl)-5-(5-methylfuran-2-yl)-4H-1,2,4-triazol-3-yl)-1-(5-fluoropyrimidin-2-yl)butane-2-sulfonamide and (R)-N-(4-(2,6-dimethoxyphenyl)-5-(5-methylfuran-2-yl)-4H-1,2,4-triazol-3-yl)-1-(5-fluoropyrimidin-2-yl)butane-2-sulfonamide] | 1.1
21 | COc1cccc(OC)c1-n1c(NS(=O)(=O)CCc2ncc(Cl)cc2CCN2CCCC2)nnc1-c1ccco1 [Example 232.0, 2-(5-Chloro-3-(2-(1-pyrrolidinyl)ethyl)-2-pyridinyl)-N-(4-(2,6-dimethoxyphenyl)-5-(2-furanyl)-4H-1,2,4-triazol-3-yl)ethanesulfonamide] | 0.45
